The results in this text go back to US20240207282A1, “METHOD OF INCREASING CHAPERONE MEDIATED AUTOPHAGY BY STABILIZING THE INTERACTION OF RETINOIC ACID RECEPTOR-ALPHA AND AN INHIBITOR” (ALBERT EINSTEIN COLLEGE OF MEDICINE, priority 2021, published 2024).

Structures are written as SMILES.

For data set [1], the system named is rd10 mice. Put plainly: rd10 mouse retinal degeneration, systemic (i.p.) administration. The format is in vivo. The source says:
Animals: C57BL/6J mice wild-type (WT) and homozygous for the Pde6 mutation (rd10 mouse model of retinal degeneration) were obtained from The Jackson Laboratory. C57BL/6 KFERQ-Dendra mice were generated by back-crossing FVB KFERQ-Dendra mice with wild-type C57BL/6 mice for 8 generations. Both male and female animals were used in this study in equal distribution groups. However, results from both sexes were pooled, because of absence of significant differences in any of the parameters analyzed after statistical analysis with a mixed model of two-way ANOVA sex and treatment as independent variables and the corresponding measure as dependent variable. All animals were housed in a barrier-controlled facility (19-23° C. 30-60% relative humidity; 12-h light/dark cycle) with ad libitum access to standard chow pellets and water. For animal administration of CA compounds, a formula containing 30% PEG 400, 65% glucose solution (5%), 5% Tween 80 was used to dissolve them. CA compounds were prepared freshly by adding 5% DMSO and sonicating for 1 h. Treatment of KFERQ-Dendra mice with the CA compounds was done by i.p. daily injection of 30 mg/kg bw or vehicle for three consecutive days and tissues collected 6 h after the last injection. In the case of rd10 mice, animals were daily injected from P18 to P25 with CA77 (40 mg/kg bw). At P26, mice were sacrificed, and eyes fixed overnight with 4% PFA in PBS at 4° C. for immunofluorescence or retinas dissected and immediately frozen for biochemistry. Distribution of animals in the vehicle or treatment group was done randomly. All animal studies and procedures complied with ethical regulations, were performed in accordance with the European Union guidelines and the ARVO Statement for the Use of Animals in Ophthalmic and Vision Research and were approved by the Institutional Animal Care and Use Committee at the Albert Einstein College of Medicine, the CSIC Bioetica Comite and approved by the Comunidad de Madrid, PROEX232/17.
Cryosections and immunofluorescence: Cryosections and immunofluorescence in retinal sections were performed as previously described 10. Primary antibodies used in this study were Transducin (Santacruz Biotechnologies) and Opsin R/G (Millipore). Sections were visualized by confocal microscopy (TCS SP5; Leica Microsystems).
ONL thickness and outer segment length quantification: For ONL thickness quantification, DAPI images were taken at 40× in a fluorescence microscope Multidimensional system Leica AF6000 LX coupled to DMI600B microscope and Hamamatsu CCD 9100-02 camera. At least two sections per animal were analyzed, preferably central sections. Eight images per retina equally distributed along the retina were acquired. Three measures were taken per image and ratio ONL/INL quantified with ImageJ tools. Leica LAS-X was used for image acquisition and ImageJ (v.2.1.0) was used for image processing. For OS length measures, fixed positions common to all pictures were considered and OS length was measured using ImageJ straight line tool.
Mice were dark adapted overnight, and subsequent manipulations were performed in dim red light. Mice were anesthetized with intraperitoneal injections of ketamine (95 mg/kg) and xylazine (5 mg/kg) solution and maintained on a heating pad at 37° C. Pupils were dilated with a drop of 1% tropicamide (Colircusi Tropicamida; Alcon Cusi). To optimize electrical recording, a topical drop (2% Methocel; Hetlingen) was instilled on each eye immediately before situating the corneal electrode. Flash-induced ERG responses were recorded from the right eye in response to light stimuli produced with a Ganzfeld stimulator. Light intensity was measured with a photometer at the level of the eye (Mavo Monitor USB; Nürenberg). Four to 64 consecutive stimuli were averaged with an interval between light flashes in scotopic conditions of 10 s for dim flashes and of up to 60 s for the highest intensity. Under photopic conditions, the interval between light flashes was fixed at 1 s. […]

For data set [2], the system named is rd10 mice. Put plainly: rd10 mouse retinal degeneration, single intravitreal injection. Type of data set: in vivo. The protocol:
Cryosections and immunofluorescence: Cryosections and immunofluorescence in retinal sections were performed as previously described 10. Primary antibodies used in this study were Transducin (Santacruz Biotechnologies) and Opsin R/G (Millipore). Sections were visualized by confocal microscopy (TCS SP5; Leica Microsystems). ONL thickness and outer segment length quantification: For ONL thickness quantification, DAPI images were taken at 40× in a fluorescence microscope Multidimensional system Leica AF6000 LX coupled to DMI600B microscope and Hamamatsu CCD 9100-02 camera. At least two sections per animal were analyzed, preferably central sections. Eight images per retina equally distributed along the retina were acquired. Three measures were taken per image and ratio ONL/INL quantified with ImageJ tools. Leica LAS-X was used for image acquisition and ImageJ (v.2.1.0) was used for image processing. For OS length measures, fixed positions common to all pictures were considered and OS length was measured using ImageJ straight line tool.

The mark [3] stands for this setting: daily i.p. 40 mg/kg bw, p18 to p25.

As for `CC(=O)Nc1ccc(C2=Nc3ccc(Cl)cc3OC2)cc1` [CA77], in the data set on rd10 mice [1] (ERG at P33), the electroretinogram wave amplitude result is “significantly higher amplitude of their b-mixed, b-phot and flicker waves”; the “other light responses (ERG)” value is reported as “No significant differences”. Further, the NCoR1 expression levels result in the data set with rd10 mice [1] (WT and rd10 mice, daily i.p. 40 mg/kg bw) is given as “did not change the expression levels of NCoR1”. Besides, in the data set on rd10 mice [1] (setting [3]), the “mRNA levels of photoreceptor-specific proteins (rhodopsin)” value is on record as “Higher mRNA levels of photoreceptor-specific proteins”, the “outer nuclear layer (ONL) thickness” value is “significantly thicker outer nuclear layers”, the “retinal GFAP levels” value is “strikingly lower levels of GFAP” and the “retinal L2A levels (immunoblot)” value is “significantly increasing retinal levels of the limiting CMA component”. Moreover, in the data set with rd10 mice [1] (daily i.p. 40 mg/kg bw, p18 to p25, vs vehicle), the “length of outer segments of photoreceptors” value was “increased length of the outer segments of photoreceptors”. For the same molecule, in the data set on rd10 mice [2] (7 days after single intravitreal injection), the vision result is given as “preserved vision”. Moreover, the “retinal ONL/INL ratio, OS and ONL preservation” value with rd10 mice [2] (7 days after single intravitreal injection (40 μM) at P18) was “thicker retinal ONL/INL ratio and better OS and ONL preservation”. Also, the gliosis result in the data set with rd10 mice [2] (single intravitreal injection (40 μM) at P18) is “significantly improved”.
